Results published in patent publication US12366579B2, “Sulfur-heterocycle exchange chemistry and uses thereof” (University of Virginia Patent Foundation, priority 2019, dated 2025).

Assays:
human DPP3 (hDPP3) = target: T1, human DPP3 (hDPP3) (Homo sapiens, UniProt Q9NY33); assay: Gel-based competitive chemical proteomic screen with HHS-482, recombinant hDPP3-HEK293T soluble proteomes; type: binding; conditions: 50 μM fragment, 37° C., 30 min; also substantial proteome cross-reactivity
T1 construct: FLAG (C); host or cells: HEK293T, transient transfection; soluble proteome used unpurified
T1 sequence (Q9NY33 1-737): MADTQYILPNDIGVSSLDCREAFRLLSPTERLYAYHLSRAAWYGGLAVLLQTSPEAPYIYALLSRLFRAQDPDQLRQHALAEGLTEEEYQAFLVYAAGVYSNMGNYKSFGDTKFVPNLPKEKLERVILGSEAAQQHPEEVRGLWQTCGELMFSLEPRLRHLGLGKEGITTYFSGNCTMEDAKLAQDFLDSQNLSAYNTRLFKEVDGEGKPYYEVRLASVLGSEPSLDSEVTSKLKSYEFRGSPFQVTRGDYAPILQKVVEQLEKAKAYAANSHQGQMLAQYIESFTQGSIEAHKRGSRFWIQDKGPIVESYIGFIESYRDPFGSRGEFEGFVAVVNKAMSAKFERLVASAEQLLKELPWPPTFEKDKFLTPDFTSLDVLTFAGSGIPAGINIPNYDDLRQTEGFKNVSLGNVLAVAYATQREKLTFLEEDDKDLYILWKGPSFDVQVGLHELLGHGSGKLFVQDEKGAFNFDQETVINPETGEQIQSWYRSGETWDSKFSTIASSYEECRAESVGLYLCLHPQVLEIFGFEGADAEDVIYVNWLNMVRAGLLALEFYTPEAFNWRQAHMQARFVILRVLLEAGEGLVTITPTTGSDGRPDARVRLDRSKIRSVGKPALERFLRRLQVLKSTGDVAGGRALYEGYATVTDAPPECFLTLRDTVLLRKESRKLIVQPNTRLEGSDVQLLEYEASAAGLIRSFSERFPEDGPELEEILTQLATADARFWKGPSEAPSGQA
Method: (§1) Gel-Based Chemical Proteomic Assay
(§2) Cell pellets were lysed in PBS and fractionated (100,000×g, 45 min, 4° C.) to generate soluble and membrane fractions. Protein concentrations were determined using Bio-Rad DC protein assay (Bio-Rad Laboratories, Inc., Hercules, California, United States of America), and adjusted to 1 mgml^−1 in PBS. Proteome samples (49 μl aliquots) were treated with DMSO vehicle or indicated concentration of SuTEx fragment (1 μL, 50× stock in DMSO) for 30 min at 37° C. Samples were then treated with HHS-482 probe (1 μL, 2.5 mM stock in DMSO) for 30 min at 37° C. Probe labeled samples were conjugated to rhodamine-azide (1 μL, 1.25 mM stock; final concentration of 25 μM) by copper-catalyzed azide-alkyne cycloadditions (CuAAC) for 1 h at room temperature followed by SDS-PAGE and in-gel fluorescence scanning as previously described^57.

[1] = target: T2, recombinant GSTP1 lysates (Homo sapiens, UniProt P09211); assay: GSTP1 biochemical substrate assay (GSH conjugation to BDNB); conditions: inhibitor 30 min at 37° C.; n=3; read-out: IC50, in vitro potency against GSTP1 by GSH substrate assay
T2 construct: FLAG (C); host or cells: HEK293T, transient transfection; soluble proteome used unpurified
T2 sequence (P09211 whole entry): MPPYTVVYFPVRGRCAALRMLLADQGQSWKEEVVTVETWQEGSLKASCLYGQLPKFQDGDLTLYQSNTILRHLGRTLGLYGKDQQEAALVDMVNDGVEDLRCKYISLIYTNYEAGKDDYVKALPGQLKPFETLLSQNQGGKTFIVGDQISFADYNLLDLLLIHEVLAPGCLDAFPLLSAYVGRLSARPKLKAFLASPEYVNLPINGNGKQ
Method: GSTP1 Biochemical Substrate Assay
Recombinant GSTP1-HEK293T soluble cell proteomes were diluted to 1 mg ml^−1 in assay buffer (100 mM NaH2PO4, pH 7.0). Samples were treated with inhibitor at indicated concentrations for 30 min at 37° C. GSH stock solution (250 mM in water) was diluted to 4 mM in assay buffer and 25 μl of diluted GSH solution was added to each sample. A substrate stock solution of 75 mM 1-bromo-2,4-dinitrobenzene […] in ethanol was diluted to 2 mM in assay buffer. Samples (25 μl) were aliquoted into a 96-well plate and spun briefly via centrifuge. Next, 50 μl of 2 mM BDNB was added to each well and the reaction was monitored in kinetic mode by measuring absorbance at 340 nm for 10 min on a BMG Labtech CLARIOstar plate reader (BMG Labtech, Cary, North Carolina, United States of America).

GSTP1 Y8 = target: T3, GSTP1 Y8 (Homo sapiens, UniProt P09211); assay: Quantitative chemical proteomics of live SILAC DM93 cells treated with SuTEx fragments; type: cell-based; conditions: 50 μM compound, 1.5 hr, 37° C.
T3 construct: endogenous in cells; host or cells: DM93 melanoma cells (SILAC)
T3 sequence (P09211 whole entry, the tested form may be a part): as the sequence (P09211 whole entry) above
Method: Live Cell Evaluation of Sulfonyl-Triazole Fragments
(§3) Cells grown to ˜90% confluency in 10 cm plates were treated with DMSO vehicle or SuTEx fragment (10 μl of 1,000× stock) in serum-free media for the indicated concentrations and times at 37° C. with 5% CO2. After treatment, cells were washed with cold PBS twice before collection and preparation for gel-based chemical proteomic evaluation as described above. For LC-MS studies, protein concentrations were normalized to 2.3 mg ml^−1 and 432 μl (for 1 mg final protein amount) were used for sample preparation as detailed below.
Heavy and light proteomes (432 μl of each) were diluted to 2.3 mg ml^−1 in PBS and sample aliquots (432 μl) were treated with SuTEx fragment at the indicated concentrations (5 μl, 100× stock in DMSO), mixed gently and incubated for 30 min at 37° C. Samples were then treated with HHS-482 (5 μL, 5 mM stock in DMSO) for 30 min at 37° C. Probe-modified proteomes were conjugated to desthiobiotin-PEG3-azide followed by enrichment of probe-modified peptides for nano-electrospray ionization-LC-MS/MS analyses as previously described^57.
Next, SILAC DM93 cells were treated with JWB152 or JWB198 to determine whether these SuTEx fragments could ligand Y8 of endogenous GSTP1 in living systems (50 μM compound, 1.5 hr, 37° C.). Cells were pretreated with DMSO vehicle or SuTEx fragments followed by cells lysis, HHS-482 labeling of proteomes, and quantitative chemical proteomics.

human GSTP1 (hGSTP1) = target: T4, human GSTP1 (hGSTP1) (Homo sapiens, UniProt P09211); assay: Gel-based competitive chemical proteomic screen with HHS-482, recombinant hGSTP1-HEK293T soluble proteomes; type: binding; conditions: fragment 50 μM, 30 min, 37° C.
T4 construct: FLAG (C); host or cells: HEK293T, transient transfection; soluble proteome used unpurified
T4 sequence (P09211 whole entry, the tested form may be a part): as the sequence (P09211 whole entry) above
Method: as §1, §2

GSTP1 = target: T5, GSTP1 (Homo sapiens, UniProt P09211); assay: Gel-based evaluation of proteomes from recombinant GSTP1-HEK293T cells treated with SuTEx fragments; type: cell-based; conditions: 50 μM compounds, 4 hr
T5 construct: FLAG (C); expressed in transfected cells; host or cells: HEK293T
T5 sequence (P09211 whole entry, the tested form may be a part): as the sequence (P09211 whole entry) above
Method: as §2, §3

[2] = target: T6, membrane proteins in human cell proteomes (Homo sapiens, UniProt Q9P032); assay: Chemical proteomic identification of membrane protein lysine sites modified by TH211; type: binding; conditions: NDUF4 human, Uniprot Q9P032; amino acid modified K
T6 construct: endogenous in cells
T6 sequence (Q9P032 whole entry): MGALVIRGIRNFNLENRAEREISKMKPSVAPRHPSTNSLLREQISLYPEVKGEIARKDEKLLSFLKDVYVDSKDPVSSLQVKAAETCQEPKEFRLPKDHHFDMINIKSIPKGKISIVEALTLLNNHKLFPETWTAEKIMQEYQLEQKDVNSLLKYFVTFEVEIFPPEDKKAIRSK
Method: (§4) The light proteome aliquots (2.3 mg/mL, 432 μL) were treated with the probe (5 μL, 100× fresh stock in DMSO) and the heavy proteome aliquots were treated with either the same probe or DMSO (no probe) at 37° C. for 1 h. Then the samples were subjected to click reaction with the desthiobiotin-PEG3-azide (10 mM in DMSO, 10 μL, final concentration 200 μM) in the presence of TCEP (50 mM, 10 μL), TBTA (1.7 mM, 33 μL) and CuSO4 (50 mM, 10 μL) at room temperature for 1 h. The light and the heavy were mixed in the chloroform-methanol extraction step. The subsequent steps including reduction with dithiothreitol, alkylation with iodoacetamide, digestion with Trypsin/Lys-C, enrichment with avidin beads were conducted as previously described.^72,51
(§5) Data acquisition: The enriched peptide samples were analyzed by LC-MS/MS on an Easy-nLC 1200 (Thermo Scientific, Waltham, Massachusetts, United States of America) coupled with an Orbitrap Q Exactive Plus mass spectrometer (Thermo Scientific, Waltham, Massachusetts, United States of America). […] A top 10 data-dependent acquisition method was used, which consisted of one full scan […] scan (m/z 375-1,500) followed by ten MS2 scans of the most abundant ions recorded in the […] scan.
(§6) Data analysis: Identification of peptides and target proteins from the LC-MS/MS raw data was achieved using the Byonic software package (Protein Metrics Inc., Cupertino, California, United States of America) to search against a modified human protein database (UniProt human protein database, angiotensin I and vasoactive intestinal peptide standards; 40660 proteins) with parameters previously described.^72 Identification of probe-modified peptides was accomplished with variable (common) modification of +635.27374 Da for TH211, +608.26284 for TH214, +578.25228 for TH216 on tyrosine and lysine residues. Other added mass such as variable methionine oxidation (+15.9949 Da), fixed cysteine carbamidomethylation (+57.02146 Da) and the SILAC heavy amino acids (+10.0083 Da for R, +8.0142 Da for K) were included in search. The results from Byonic search were imported into Skyline-daily to determine SILAC ratio (SR) of light/heavy peptides.^51 To account for variations in mixing and sample preparation, SRs of peptide from probe/no-probe (the light was treated with the probe while the heavy was treated with DMSO) were normalized to those from probe/probe (both the light and the heavy were treated with the probe). Unless otherwise stated, the results from Skyline-daily output were filtered in R to keep peptides of high quality that meet the following criteria: Byonic score ≥300; a precursor mass error within 5 ppm; normalized SR≥5, with both isotop dot-product (iDOTP) and ratio dot-product (rDOTP)≥0.8. Comparison of probe-modified sites across all probes and cells were performed using the R package ggplot2 and Venn diagrams were generated with the VennDiagram R package.^72 Other bioinformatics analysis such as the domain enrichment analysis and the DrugBank analysis were performed as previously described.^72

[3] = tested on: membrane proteins in human cell proteomes; assay: as above; type: binding; conditions: amino acid modified K
Method: as §4, §5, §6

[4] = target: T7, membrane proteins in human cell proteomes (Homo sapiens, UniProt Q02750); assay: as above; type: binding; conditions: MP2K1 human, Uniprot Q02750; amino acid modified K
T7 construct: endogenous in cells
T7 sequence (Q02750 whole entry): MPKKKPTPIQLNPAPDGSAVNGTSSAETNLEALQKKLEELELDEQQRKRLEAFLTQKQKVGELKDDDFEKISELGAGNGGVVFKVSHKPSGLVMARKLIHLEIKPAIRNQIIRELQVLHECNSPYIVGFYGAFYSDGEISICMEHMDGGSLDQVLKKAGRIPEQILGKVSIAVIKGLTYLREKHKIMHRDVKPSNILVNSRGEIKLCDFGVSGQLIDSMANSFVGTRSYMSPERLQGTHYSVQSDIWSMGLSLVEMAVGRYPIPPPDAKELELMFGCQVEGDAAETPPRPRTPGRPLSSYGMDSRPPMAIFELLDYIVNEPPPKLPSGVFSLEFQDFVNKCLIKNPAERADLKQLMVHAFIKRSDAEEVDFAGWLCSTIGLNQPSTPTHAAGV
Method: as §4, §5, §6

[5] = target: T8, membrane proteins in human cell proteomes (Homo sapiens, UniProt P51970); assay: as above; type: binding; conditions: NDUA8 human, Uniprot P51970; amino acid modified K
T8 construct: endogenous in cells
T8 sequence (P51970 whole entry): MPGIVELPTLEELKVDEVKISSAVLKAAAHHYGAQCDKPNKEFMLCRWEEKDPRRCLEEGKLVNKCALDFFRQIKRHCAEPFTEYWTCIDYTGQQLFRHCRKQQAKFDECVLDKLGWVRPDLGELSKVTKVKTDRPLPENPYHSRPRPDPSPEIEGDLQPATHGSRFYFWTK
Method: as §4, §5, §6

[6] = target: T9, membrane proteins in human cell proteomes (Homo sapiens, UniProt Q9BQB6); assay: as above; type: binding; conditions: VKOR1 human, Uniprot Q9BQB6, amino acid modified K
T9 construct: endogenous in cells
T9 sequence (Q9BQB6 whole entry): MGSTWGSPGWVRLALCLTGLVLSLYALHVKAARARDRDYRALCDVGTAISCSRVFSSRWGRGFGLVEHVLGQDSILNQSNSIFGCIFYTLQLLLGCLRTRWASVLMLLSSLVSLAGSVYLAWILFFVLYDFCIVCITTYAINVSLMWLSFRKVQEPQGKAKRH
Method: as §4, §5, §6

[7] = target: T10, recombinant human diacylglycerol kinase-alpha (DGKA) (Homo sapiens, UniProt P23743); assay: Gel-based probe labeling of recombinant DGKA with TH SuTEx probes; type: binding; conditions: FIG. 39D, left panel
T10 construct: FLAG (N); made in house; host or cells: HEK293T, transient transfection; lysate used unpurified
T10 sequence (P23743 whole entry): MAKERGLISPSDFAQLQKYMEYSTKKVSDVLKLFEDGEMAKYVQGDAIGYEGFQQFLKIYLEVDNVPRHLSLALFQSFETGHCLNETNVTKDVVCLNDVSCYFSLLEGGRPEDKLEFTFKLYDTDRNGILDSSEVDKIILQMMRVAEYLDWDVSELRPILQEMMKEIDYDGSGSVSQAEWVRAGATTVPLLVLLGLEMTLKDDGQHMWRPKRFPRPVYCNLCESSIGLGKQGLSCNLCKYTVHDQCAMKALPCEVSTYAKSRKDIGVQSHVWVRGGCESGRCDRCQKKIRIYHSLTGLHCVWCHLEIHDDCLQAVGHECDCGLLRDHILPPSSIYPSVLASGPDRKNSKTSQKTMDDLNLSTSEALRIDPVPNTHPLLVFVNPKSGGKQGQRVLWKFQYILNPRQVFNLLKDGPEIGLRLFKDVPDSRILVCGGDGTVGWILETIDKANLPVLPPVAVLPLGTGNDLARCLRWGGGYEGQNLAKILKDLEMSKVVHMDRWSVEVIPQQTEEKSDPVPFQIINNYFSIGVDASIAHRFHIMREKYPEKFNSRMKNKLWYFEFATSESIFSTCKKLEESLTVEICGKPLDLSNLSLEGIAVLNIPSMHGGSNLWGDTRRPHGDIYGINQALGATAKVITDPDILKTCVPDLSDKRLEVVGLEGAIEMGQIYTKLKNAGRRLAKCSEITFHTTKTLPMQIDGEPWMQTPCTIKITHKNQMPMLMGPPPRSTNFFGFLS
Method: as §1
Proteome aliquots (2 mg/mL, 49 μL) were treated with probes at indicated concentration (1 μL, 50× stock in DMSO) at 37° C. for 1 h. The subsequent conjugation with fluorophore was accomplished by copper-catalyzed azide-alkyne cycloaddition (CuAAC) with rhodamine-azide (TAMRA-azide, 1.25 mM, 1 μL, final concentration of 25 μM) in the presence of tris(2-carboxyethyl)phosphine (TCEP, 50 mM fresh in water, 1 μL, final concentration of 1 mM), tris[(1-benzyl-1H-1,2,3-triazol-4-yl)methyl]amine (TBTA, 1.7 mM in 4:1 t-butanol/DMSO, 3 μL, final concentration of 100 μM) and CuSO4 (50 mM, 1 μL, final concentration of 1 mM). For samples of live cell treatment, it started with click reaction without the step of the probe treatment in vitro. After 1 h incubation at room temperature, reactions were quenched by adding 4×SDS-PAGE loading buffer and beta-mercaptoethanol (17 μL) and samples were resolved by SDS-PAGE followed by in-gel fluorescence scanning.

N#Cc1ccc(S(=O)(=O)n2cnc(-c3ccc(C(F)(F)F)cc3)n2)cc1 [JWB152, 4-((3-(4-(Trifluoromethyl)phenyl)-1H-1,2,4-triazol-1-yl)sulfonyl)benzonitrile]
competition against recombinant DPP3 (human DPP3 (hDPP3)): potent competition
IC50 [1]: 23 µM
blockade of HHS-482 labeling of native GSTP1 Y8 in live cells (GSTP1 Y8): ~20%
block of HHS-482 labeling of GSTP1 (human GSTP1 (hGSTP1)): block HHS-482 labeling to levels comparable with Y8F mutant
HHS-482 labeling of GSTP1 after live cell treatment (GSTP1): reduced HHS-482 labeling

C#CCNC(=O)c1ccc(S(=O)(=O)n2cc(CCN3CCC(=C(c4ccc(F)cc4)c4ccc(F)cc4)CC3)nn2)cc1 [TH211, 4-((4-(2-(4-(Bis(4-fluorophenyl)methylene)piperidin-1-yl)ethyl)-1H-1,2,3-triazol-1-yl)sulfonyl)-N-(prop-2-yn-1-yl)benzamide]
Modified Amino Acid Number [2]: 24
Modified Amino Acid Number ([3]; NDUA5 human, Uniprot Q16718): 30
Modified Amino Acid Number ([3]; NDUB3 human, Uniprot O42676): 39
Modified Amino Acid Number ([3]; NU5M human, Uniprot P03915): 455
Modified Amino Acid Number ([3]; PYRD human, Uniprot Q02127): 166
Modified Amino Acid Number [4]: 97
Modified Amino Acid Number [5]: 172
Modified Amino Acid Number ([6]; lysine residue 152): 152
Modified Amino Acid Number ([6]; lysine residue 159): 159
fluorescent labeling of recombinant human DGKA [7]: concentration dependent manner
